Patent publication US20250179078A1, “INHIBITORS OF NLRP3” (PTC THERAPEUTICS, INC., priority 2022, published 2025)

molecular target: T1, NLRP3 (Homo sapiens, UniProt Q96P20); experiment: IL-1β Secretion Assay (NLRP3-dependent IL1β secretion in THP1 cells); type: cell-based; conditions: PMA-differentiated THP-1 cells; compounds incubated 20 h; 2.5 μM Nigericin 3 h; HTRF IL-1β readout; read-out: IC50 IL-1β Inhibition
T1 construct: host or cells: THP-1 cells differentiated with PMA
In short: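 IL-1β in conditioned media, measured by HTRF after 3 h 2.5 μM nigericin stimulation, gave % inhibition fitted logistically for IC50. Before that, PMA-differentiated (100 ng/mL, 24 h) THP-1 cells were preincubated 20 h with 7 compound concentrations (3-fold serial, DMSO 1:200).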

T1 sequence (Q96P20 whole entry): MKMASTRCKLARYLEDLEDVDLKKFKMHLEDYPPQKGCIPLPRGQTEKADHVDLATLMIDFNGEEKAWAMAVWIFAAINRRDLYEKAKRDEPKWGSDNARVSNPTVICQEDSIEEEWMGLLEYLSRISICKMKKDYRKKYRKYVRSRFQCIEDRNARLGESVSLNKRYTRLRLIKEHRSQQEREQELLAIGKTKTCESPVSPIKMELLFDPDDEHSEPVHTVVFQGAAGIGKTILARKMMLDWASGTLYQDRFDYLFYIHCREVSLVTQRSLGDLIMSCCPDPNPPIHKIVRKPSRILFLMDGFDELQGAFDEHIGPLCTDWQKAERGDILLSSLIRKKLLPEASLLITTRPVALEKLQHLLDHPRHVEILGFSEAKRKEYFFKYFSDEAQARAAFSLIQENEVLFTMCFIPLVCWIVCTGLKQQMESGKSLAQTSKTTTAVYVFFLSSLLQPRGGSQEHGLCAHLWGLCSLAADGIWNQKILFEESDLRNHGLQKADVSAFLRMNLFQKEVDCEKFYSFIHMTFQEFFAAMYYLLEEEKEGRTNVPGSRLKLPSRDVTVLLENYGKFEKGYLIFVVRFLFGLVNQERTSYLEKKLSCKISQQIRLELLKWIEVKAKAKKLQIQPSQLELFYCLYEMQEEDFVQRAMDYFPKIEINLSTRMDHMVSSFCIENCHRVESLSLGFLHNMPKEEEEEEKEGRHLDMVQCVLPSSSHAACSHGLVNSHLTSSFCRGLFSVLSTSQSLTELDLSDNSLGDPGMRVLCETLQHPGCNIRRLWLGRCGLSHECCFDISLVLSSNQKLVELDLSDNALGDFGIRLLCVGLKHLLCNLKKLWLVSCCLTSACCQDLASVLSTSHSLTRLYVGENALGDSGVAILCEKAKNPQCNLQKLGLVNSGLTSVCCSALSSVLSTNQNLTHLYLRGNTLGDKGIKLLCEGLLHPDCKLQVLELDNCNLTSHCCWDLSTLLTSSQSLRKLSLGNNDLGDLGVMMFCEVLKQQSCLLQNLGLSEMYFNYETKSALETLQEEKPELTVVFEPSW

SMILES | IC50 [µM]
CCN1C[C@H](F)C[C@@H](Nc2nnc(-c3ccc(C(F)(F)F)cc3OC(F)F)c3cc(C)nn23)C1 [Compound 356, 4-[2-(difluoromethoxy)-4-(trifluoromethyl)phenyl]-N-[(3R,5R)-1-ethyl-5-fluoropiperidin-3-yl]-2-methylpyrazolo[1,5-d][1,2,4]triazin-7-amine] | < 0.001
CCN1CCC[C@@H](Nc2nnc(-c3ccc(S(C)(=O)=O)cc3OC(F)(F)F)c3cc(C)nn23)C1 [Compound 369, N-[(3R)-1-ethylpiperidin-3-yl]-4-[4-(methanesulfonyl)-2-(trifluoromethoxy)phenyl]-2-methylpyrazolo[1,5-d][1,2,4]triazin-7-amine] | 0.01 to 0.1
COc1ccc(-c2nnc(N[C@@H]3CCCN(C)C3)n3cccc23)c(CC(F)(F)F)c1 [Compound 145, 1-[4-methoxy-2-(2,2,2-trifluoroethyl)phenyl]-N-[(3R)-1-methylpiperidin-3-yl]pyrrolo[1,2-d][1,2,4]triazin-4-amine] | < 0.001
COc1ccc(-c2nnc(N[C@H]3C[C@@](C)(O)C3)n3cncc23)c(OCC(F)(F)F)c1 [Compound 305, (1s,3s)-3-({1-[4-methoxy-2-(2,2,2-trifluoroethoxy)phenyl]imidazo[1,5-d][1,2,4]triazin-4-yl}amino)-1-methylcyclobutan-1-ol] | 0.01 to 0.1
OCCN1CCC[C@@H](Nc2nnc(-c3ccc(OC(F)F)cc3OC(F)(F)F)c3cccn23)C1 [Compound 86, 2-[(3R)-3-({1-[4-(difluoromethoxy)-2-(trifluoromethoxy)phenyl]pyrrolo[1,2-d][1,2,4]triazin-4-yl}amino)piperidin-1-yl]ethan-1-ol] | < 0.001
COc1ccc(-c2nnc(N[C@H]3C[C@@](C)(O)C3)n3cncc23)c(CC(F)(F)F)c1 [Compound 236, (1s,3s)-3-({1-[4-methoxy-2-(2,2,2-trifluoroethyl)phenyl]imidazo[1,5-d][1,2,4]triazin-4-yl}amino)-1-methylcyclobutan-1-ol] | 0.001 to 0.01
COc1ccc(-c2nnc(N[C@@H]3CCCC[C@H]3O)n3cncc23)c(OC(F)(F)F)c1 [Compound 223, (1R,2R)-2-({1-[4-methoxy-2-(trifluoromethoxy)phenyl]imidazo[1,5-d][1,2,4]triazin-4-yl}amino)cyclohexan-1-ol] | 0.001 to 0.01
OCCN1CCC[C@@H](Nc2nnc(-c3ccc(C(F)(F)F)cc3OC(F)F)c3c(F)ccn23)C1 [Compound 15] | 0.001 to 0.01
CN1CCC[C@@H](Nc2nnc(-c3ccc(Br)cc3C(F)(F)F)c3cncn23)C1 [Compound 200, 1-[4-bromo-2-(trifluoromethyl)phenyl]-N-[(3R)-1-methylpiperidin-3-yl]imidazo[1,5-d][1,2,4]triazin-4-amine] | 0.001 to 0.01
COc1ccc(-c2nnc(N[C@@H]3CCCC[C@@]3(C)O)n3cncc23)c(OC(F)(F)F)c1 (single isomer, unassigned) [Compound 311] | 0.001 to 0.01

Continued, values first:

IC50 [µM] | SMILES
0.001 to 0.01 | Cc1ccc(-c2nnc(NC3CCNC3=O)n3cccc23)c(CC(F)(F)F)c1 (centres unmarked) [Compound 157, 3-({1-[4-methyl-2-(2,2,2-trifluoroethyl)phenyl]pyrrolo[1,2-d][1,2,4]triazin-4-yl}amino)pyrrolidin-2-one]
0.01 to 0.1 | Cc1ccc(-c2nnc(N[C@@H]3CCOC[C@H]3O)n3cncc23)c(CC(F)(F)F)c1 [Compound 402, (3S,4R)-4-({1-[4-methyl-2-(2,2,2-trifluoroethyl)phenyl]imidazo[1,5-d][1,2,4]triazin-4-yl}amino)oxan-3-ol]
0.001 to 0.01 | CN1CCCC(Nc2nnc(-c3ccc(C(F)(F)F)cc3CC(F)(F)F)c3cncn23)C1=O (centres unmarked) [Compound 329, 1-methyl-3-({1-[2-(2,2,2-trifluoroethyl)-4-(trifluoromethyl)phenyl]imidazo[1,5-d][1,2,4]triazin-4-yl}amino)piperidin-2-one]
< 0.001 | O[C@@H]1CCCC[C@H]1Nc1nnc(-c2ccc(C(F)(F)F)cc2OC(F)(F)F)c2cncn12 [Compound 242, (1R,2R)-2-({1-[2-(trifluoromethoxy)-4-(trifluoromethyl)phenyl]imidazo[1,5-d][1,2,4]triazin-4-yl}amino)cyclohexan-1-ol]
